Laboratory results published in US10406227B2, “Photoactivated molecules for light-induced modulation of the activity of electrically excitable cells and methods of using same” (University of Southern California, priority 2012, dated 2019).

Experiments:
RCS rats = test: Retina histology / pathology after intravitreal injection; type: in vivo, rat
Description: This finding was reproduced in 3 of 3 RCS rats injected with Rubpy-C17, and in 2 of 2 control (sham injection) RCS rats.

[1] = system: mouse adrenal chromaffin cells; test: Perforated patch clamp action potential recording; type: cell-based
Method: Action potentials in chromaffin cells were monitored using perforated patch clamp electrophysiology in current-clamp mode, using an EPC10 amplifier and Pulsemaster data acquisition software (HEKA electronics). A coverslip containing mouse chromaffin cells was transferred to a recording chamber and perfused with extracellular solution. Extracellular solution consists of 140 mM NaCl, 2.8 mM KCl, 10 mM HEPES, 1 mM MgCl2, 2 mM CaCl2, 10 mM glucose, pH adjusted to 7.3, and osmolarity adjusted to 290-300 mOsm. Intracellular solution consisted of 145 mM KCl, 10 mM NaCl, 1 mM MgCl2, and 10 mM HEPES, pH adjusted to 7.3 and osmolarity adjusted to 290-300 mOsm. Perforation solution was prepared by adding 4.5 μl of 125 mg/ml stock of amphoterecin B (Sigma) in DMSO to 1.8 mls of intracellular solution, and homogenizing for 5-10 s. Perforation was achieved within 3-10 min following gigaseal formation. Series resistances were in the range of 8-22 Mohm. Light stimulation in the blue spectrum originated from a xenon lamp source with an irradiance value of 0.480 mE s^−1 m^−2 through a 470/40 nm bandpass excitation filter. The duration of illumination varied and is indicated by bars on figures.
The behavior of excitable cells (cells capable of firing action potentials) treated with RubpyC17 was next investigated. Perforated patch clamp recording was performed on mouse adrenal chromaffin cells pretreated with 450-900 nM RubpyC17 for 15-30 minutes before beginning electrophysiological recordings. […] A slow, gradual reversal, on the order of seconds after light illumination was terminated (FIG. 3A), was observed.

Substance: [Ru(bpy)2(bpy-C17)](PF6)2 [RubpyC17]
- histology of the retina (RCS rats; 3 days after injection, preliminary): no evidence of retinal cell death or white blood cell infiltrates
- initial pathology studies (RCS rats; eyes injected with Rubpy-C17): absence of obvious signs of deleterious effects
- effect of light on action potential firing ([1]; 900 nM RubpyC17 pretreatment, 5 mM ascorbate): triggered action potentials or increased the rate of action potential firing
- action potential firing rate, single cell, ascorbate changed for ferricyanide ([1]; 2 μM RubpyC17 for 1.5 min): light-induced increase and then light-induced decrease
- effect of light on action potential firing ([1]; 100 μM ferricyanide): decreased the rate of action potential firing
- action potential waveform shape ([1]; before vs during light illumination): no change in the shape of action potential waveforms
- effect of light on action potential firing ([1]; ferricyanide increased from 100 to 200 μM): further suppressed action potential firing
